What follows are compounds tested on eosinophils (assay: Infiltration of eosinophils in the nasal cavity by an antigen challenge). Settings: guinea pig, oral 1, 3 and 10 mg/kg, 1 hr before antigen challenge; marked columns not given.
Type: in vivo
Experimental: Activity on Infiltration of Eosionophils in the Nasal Cavity by an Antigen Challenge
To a Hartley male guinea pig was injected intraperitoneally cyclophosphamide (30 mg/kg), after 2 day 1 ml of suspension containing 1 mg of ovalbumin (OVA) and 100 mg of aluminum hydroxide was injected intraperitoneally. After 3 weeks, 1 ml of mixture of OVA (10 μg) and aluminum hydroxide (100 mg) was intraperitoneally injected as additional immunization to sensitize systemically. After the lapse of 3 weeks, local sensitization, each 10 μl of 1% OVA solution was dripped in both nasal cavities four times at 2-4 day intervals. After 5-7 days from the final sensitization, nasal antigen challenge was performed by dripping 10 μl of 1% OVA solution to the guinea pigs in the both nasal cavity. Five hours after nasal challenge, the guinea pigs were exsanguinated under the anesthetization. The nasal airways were washed by infusing 10 ml of saline, and the washings were collected. The washing were centrifuged, the cell pellets were resuspended in 100 μl of saline, and the total cells were counted by the Turk stain. Then smear samples were prepared, and the cells were classified after the May-Grunwald-Giemsa stain. The eosinophil number was determined by multiplying the rate of eosinophils with the total cells. […]

Row | SMILES | inhibition of infiltration of eosinophils in the nasal cavity, significance versus vehicle (FIG. 1)
1 | CC1(C)[C@H]2C[C@H](C/C=C\CCCC(=O)O)[C@@H](NC(=O)c3csc4ccc(O)cc34)[C@@H]1C2 [IA-a-5] | significantly different from vehicle at p<0.01

What follows are compounds tested against T1, PGD2 receptor (Homo sapiens, UniProt Q13258) (assay: Antagonistic activity against PGD2 receptor using human platelet (inhibition of PGD2-induced cAMP increase)). Settings: human washed platelets, 0.1 μM PGD2, 3-isobutyl-1-methylxanthine 0.5 mM, 37° C.; read-out: IC50, inhibition of cAMP increased by PGD2.
T1 construct: A suspension adjusted to contain platelet at a final concentration of; endogenous in cells; host or cells: washed human platelets from peripheral blood of a healthy volunteer
T1 sequence (Q13258 1-359): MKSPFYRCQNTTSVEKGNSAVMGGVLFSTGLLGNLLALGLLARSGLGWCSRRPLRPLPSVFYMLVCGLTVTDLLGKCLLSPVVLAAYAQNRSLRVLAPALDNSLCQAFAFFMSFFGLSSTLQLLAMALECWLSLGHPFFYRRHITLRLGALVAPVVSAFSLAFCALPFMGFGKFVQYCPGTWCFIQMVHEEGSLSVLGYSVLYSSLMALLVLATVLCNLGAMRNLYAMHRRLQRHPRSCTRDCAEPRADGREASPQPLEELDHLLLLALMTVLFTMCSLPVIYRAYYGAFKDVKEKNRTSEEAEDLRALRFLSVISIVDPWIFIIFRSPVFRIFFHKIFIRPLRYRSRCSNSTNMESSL
Type: cell-based
Experimental: Evaluation of Antagonistic Activity Against PGD2 Receptor Using Human Platelet
Peripheral blood was obtained from a healthy volunteer using a syringe in which 1/9 volume of citric acid/dextrose solution has been previously added. The syringe was subjected to centrifugation at 180 g for 10 min to obtain the supernatant (PRP:platelet rich plasma). the resultant PRP was washed 3 times with a washing buffer and the number of platelet was counted with a micro cell counter. A suspension adjusted to contain platelet at a final concentration of 5×10^8 /ml was warmed at 37° C., and then subjected to the pre-treatment with 3-isobutyl-1-methylxanthine (0.5 mM) for 5 min. To the suspension was added a test compound diluted at various concentration. Ten-minute later, the reaction was induced by the addition of 0.1 μM PGD2 and , 2-minute later, stopped by the addition of hydrochloric acid. The platelet was destroyed with an ultrasonic homogenizer. After centrifugation, the cAMP in the supernatant was determined by radioummunoassay. PGD2 receptor antagonism of a drug was evaluated as follows. The inhibition rate regarding cAMP increased by the addition of PGD2 was determined at individual concentration, and then the concentration of the drug required for 50% inhibition (IC50) was calculated.

Row | SMILES | IC50 [nM]
2 | CC1(C)[C@H]2C[C@@H](C/C=C/CCCC(=O)O)[C@@H](NC(=O)c3csc4ccc(O)cc34)[C@@H]1C2 [IA-c-2] | 61
3 | CC1(C)[C@H]2C[C@H](NC(=O)c3csc4ccccc34)[C@@H](C/C=C\CCCC(=O)O)[C@@H]1C2 [IB-a'-1] | 41
4 | CC1(C)[C@H]2C[C@@H](C/C=C\CCCC(=O)O)[C@@H](NC(=O)c3csc4ccc(O)cc34)[C@@H]1C2 [IA-c-1] | 55
5 | CC1(C)[C@H]2C[C@@H](NC(=O)c3csc4ccc(O)cc34)[C@H](C/C=C\CCCC(=O)O)[C@@H]1C2 [IB-b'-3] | 57

Results, then the compound that gave them:

Row | IC50 [nM] | SMILES
6 | 1.3 | CC1(C)[C@H]2C[C@H](C/C=C\CCCC(=O)O)[C@@H](NC(=O)c3csc4ccc(O)cc34)[C@@H]1C2 [IA-a-5]
7 | 28 | CC1(C)[C@H]2C[C@H](C/C=C/CCCC(=O)O)[C@@H](NC(=O)c3csc4ccc(O)cc34)[C@@H]1C2 [IA-a-17]
8 | 2.8 | CC1(C)[C@H]2C[C@H](C/C=C\CCCC(=O)O)[C@@H](NC(=O)c3csc4cc(O)ccc34)[C@@H]1C2 [IA-a-7]
9 | 0.21 | CC(=O)Oc1ccc2scc(C(=O)N[C@@H]3[C@@H](C/C=C\CCCC(=O)O)C[C@H]4C[C@@H]3C4(C)C)c2c1 [IA-a-9]

These compounds were tested on Hartley male guinea pig (assay: Nasal blocking model (intranasal pressure after OVA antigen exposure)). Settings: oral 60 min before 3% OVA antigen exposure, dose not given.
Type: in vivo
Experimental: Experiment Using Nasal Blocking Model
The method used for measuring the intranasal pressure for evaluating the anti-nasal blockage using guinea pigs is described below.
A 1% ovalbumin (OVA) solution was treated with an ultrasonic nebulizer to obtain an aerosol. Hartley male guinea pig was sensitized by inhaling twice the aerosol for 10 min at one-week interval. Seven-day after the sensitization, the guinea pig was exposed to an antigen to initiate the reaction. Briefly, the trachea was incised under the anesthesia with pentobarbital (30 mg/kg, i.p.) and cannulas were inserted at the pulmonary side was connected with an artificial respirator that provides 4 ml air 60 times/min. After arresting the spontaneous respiration of the guinea pig with Gallamin (2 mg/kg, i.v.), air was supplied to the snout side with an artificial respirator at the frequency of 70 times/min, and the flow rate of 4 ml air/time, and the atmospheric pressure required for the aeration was measured by the use of a transducer fitted at the branch. The measurement was used as a parameter of the nasal cavity resistance. The exposure of an antigen was carried out by generating aerosol of 3% OVA solution for 3 min between the respirator and the nasal cavity cannula. The test drug was administered orally 60 min before the antigen exposure. […]

Row | SMILES | Inhibitory Rate, intranasal pressure AUC for 30 min vs vehicle [%]
10 | CC1(C)[C@H]2C[C@H](C/C=C\CCCC(=O)O)[C@@H](NC(=O)c3csc4ccc(O)cc34)[C@@H]1C2 [IA-a-5] | 96

The compounds below were run against T1, PGD2 receptor (assay: Binding to PGD2 Receptor (inhibition of [3H]PGD2 binding to human platelet membrane fraction)). Settings: human platelet membrane fraction (0.1 mg), 5 nM [3H]PGD2, pH 7.4, 4° C., 90 min.
Experimental: (1) Preparation of Human Platelet Membrane Fraction
Blood sample was obtained using a plastic syringe containing 3.8% sodium citrate from the vein of healthy volunteers (adult male and female), put into a plastic test tube and mixed gently by rotation. The sample was then centrifuged at 1800 rpm, 10 min at room temperature, and the supernatant containing PRP (platelet-rich plasma) was collected. The PRP was recentrifuged at2300 rpm, 22 min at room temperature to obtain platelets. The platelets were homogenized using a homogenizer (Ultra-Turrax) followed by centrifugation 3 times at 20,000 rpm, 10 min at 4° C. to obtain a platelet membrane fraction. After protein determination, the membrane fraction was adjusted to 2 mg/ml and preserved in a refrigerator at -80° C. until use.
(2) Binding to PGD2 Receptor
To a binding-reaction solution (50 mM Tris/HCl, pH 7.4, 5 mM MgCl2) (0.2 ml) were added to the human platelet membrane fraction (0.1 mg) and 5 nM [^3 H]PGD2 (115 Ci/mmol), and reacted at 4° C. for 90 min. After the reaction completed, the reaction mixture was filtered through a glass fiber filter paper, washed several times with cooled saline, and measured the radioactivity retained on the filter paper. The specific binding was calculated by subtracting the non-specific binding (the binding in the presence of 10 μM PGD2) from the total binding. The inhibitory activity of each compound was expressed as the concentration required for 50% inhibition (IC50), which was determined by depicting a substitution curve by plotting the binding ratio (%) in the presence of each compound, where the binding ratio in the absence of a test compound is 100%.

Row | IC50 [nM] | SMILES
11 | 3.3 | CC1(C)[C@H]2C[C@H](C/C=C\CCCC(=O)O)[C@@H](NC(=O)c3csc4ccc(Br)cc34)[C@@H]1C2 [IA-a-2]
12 | 0.4 | CC1(C)[C@H]2C[C@H](C/C=C\CCCC(=O)O)[C@@H](NC(=O)c3csc4ccc(O)cc34)[C@@H]1C2 [IA-a-5]
13 | 1.3 | CC1(C)[C@H]2C[C@H](C/C=C\CCCC(=O)O)[C@@H](NC(=O)c3csc4cc(O)ccc34)[C@@H]1C2 [IA-a-7]
14 | 6.5 | CC(=O)Oc1ccc2scc(C(=O)N[C@@H]3[C@@H](C/C=C\CCCC(=O)O)C[C@H]4C[C@@H]3C4(C)C)c2c1 [IA-a-9]
